Measurements: paper PMC10045534, “Preparation and Evaluation of 6-Gingerol Derivatives as Novel Antioxidants and Antiplatelet Agents” (Antioxidants, 2023)

Target: T1, COX-1 enzyme (Ovis aries, UniProt P05979)
T1 construct: purchased BioVision (via VWR International Kft.) K548-100
T1 sequence (P05979 25-600): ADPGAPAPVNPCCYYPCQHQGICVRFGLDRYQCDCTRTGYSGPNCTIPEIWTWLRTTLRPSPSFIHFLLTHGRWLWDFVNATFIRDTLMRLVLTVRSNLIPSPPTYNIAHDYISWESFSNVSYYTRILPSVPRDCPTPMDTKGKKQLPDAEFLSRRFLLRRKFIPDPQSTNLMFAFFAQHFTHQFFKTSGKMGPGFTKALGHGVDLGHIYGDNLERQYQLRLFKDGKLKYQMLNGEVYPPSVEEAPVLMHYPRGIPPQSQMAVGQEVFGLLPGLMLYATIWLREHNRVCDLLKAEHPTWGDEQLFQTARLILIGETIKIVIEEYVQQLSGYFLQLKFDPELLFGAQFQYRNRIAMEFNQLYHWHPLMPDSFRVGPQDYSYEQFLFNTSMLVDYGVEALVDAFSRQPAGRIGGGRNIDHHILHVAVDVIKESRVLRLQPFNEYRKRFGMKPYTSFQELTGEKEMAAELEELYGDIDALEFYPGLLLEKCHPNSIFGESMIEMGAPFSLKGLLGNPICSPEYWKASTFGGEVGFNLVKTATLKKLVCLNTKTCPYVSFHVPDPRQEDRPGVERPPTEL
Assay: COX-1 inhibitor screening kit, fluorometric (BioVision K548-100)
Type: biochemical
Settings: LLE = pIC50 − logPpredicted
Experimental: COX-1 inhibitory activity was tested based on the fluorometric method as described in BioVision’s COX-1 inhibitor screening kit leafkit (K548-100, BioVision, CA, USA). Sample solutions were prepared by dissolving in DMSO and subsequently buffer, to get desired concentrations. In a 96-well white plate (655101, F-bottom, Grenier bio-one, Germany), 80 µL reaction mix (containing 76 µL assay buffer, 1 µL COX Probe, 2 µL COX cofactor, and 1 µL COX-1 enzyme) was added to 10 µL sample solution, DMSO and assay buffer to get test wells assigned for sample screen (S), negative control (N) and blank, respectively. An aliquot of 10 µL of arachidonic/NaOH solution was added to each well using a multi-channel pipette to initiate the reaction at the same time, and the fluorescence of each well was measured kinetically at Ex/Em 550/610 nm, at 25OC for 10 min using a FluoStar Optima plate reader (BMG Labtech, Ortenberg, Germany). The COX inhibitory activity of SC560, a standard inhibitor, was also determined.
The change in fluorescence between two points, T1 and T2 were determined, and relative inhibition was calculated according to the following equation:% Inhibition = (ΔN − ΔS)/ΔN × 100 (1) where N is the absorbance of the negative control, and S is that of the sample.
Dose-effect studies on the compounds were used to determine the concentration that inhibits 50% of the enzyme activity. The sigmoidal dose–response model was obtained by using the software GraphPad Prism 8.0 (La Jolla, CA, USA), and these were used to determine the IC50 values of the compounds.
With `CCCCC[C@H](O)CC(=O)CCc1ccc(O)c(OC)c1` [Compound 1, (S)-5-hydroxy-1-(4-hydroxy-3-methoxyphenyl)decan-3-one] the “LLE(COX-1)” value was 1.30. In the case of `CCCCC/C=C/C(=O)CCc1ccc(O)c(OC)c1` [Compound 2, 6-shogaol], the “LLE(COX-1)” value is reported as 0.81. For `CCCCC[C@H](O)C[C@H](O)CCc1ccc(O)c(OC)c1` [Compound 5, (3R,5S)-1-(4-hydroxy-3-methoxyphenyl)decane-3,5-diol], the “LLE(COX-1)” value was 1.27. With `CCCCCc1cc(/C=C/c2ccc(O)c(OC)c2)on1` [Compound 17, (E)-2-methoxy-4-(2-(3-pentylisoxazol-5-yl)vinyl)phenol] the “LLE(COX-1)” value was 0.83. For `CCCCCc1cc(/C=C/c2ccc(O)cc2)[nH]n1` [Compound 16, (E)-4-(2-(3-pentyl-1H-pyrazol-5-yl)vinyl)phenol], the “LLE(COX-1)” value was −0.04. In the case of `CCCCCCCC(=O)CCc1ccc(O)c(OC)c1` [Compound 3, 4,5-dihydro-6-shogaol], the “LLE(COX-1)” value is reported as 1.26. For `CCCCC[C@H](O)C[C@@H](O)CCc1ccc(O)c(OC)c1` [Compound 6, (3S,5S)-1-(4-hydroxy-3-methoxyphenyl)decane-3,5-diol], the “LLE(COX-1)” value was 1.12. In the case of `CCCCCc1cc(CCc2ccc(O)c(OC)c2)[nH]n1` [Compound 14, 2-methoxy-4-(2-(3-pentyl-1H-pyrazol-5-yl)ethyl)phenol], the “LLE(COX-1)” value is reported as 0.74. With `CCCCCCCC(CCc1ccc(O)c(OC)c1)=NO` [Compound 4, 1-(4-hydroxy-3-methoxyphenyl)decan-3-one oxime] the “LLE(COX-1)” value was 0.48.

Same assay, conditions: mean ± SEM, n = 2
In the case of `CCCCC[C@H](O)CC(=O)CCc1ccc(O)c(OC)c1` [Compound 1, (S)-5-hydroxy-1-(4-hydroxy-3-methoxyphenyl)decan-3-one], the IC50 is reported as 62.5 ± 23.8 µM. With `CCCCC/C=C/C(=O)CCc1ccc(O)c(OC)c1` [Compound 2, 6-shogaol] the IC50 was 9.8 ± 0.6 µM. For `CCCCC[C@H](O)C[C@H](O)CCc1ccc(O)c(OC)c1` [Compound 5, (3R,5S)-1-(4-hydroxy-3-methoxyphenyl)decane-3,5-diol], the IC50 was 54.3 ± 6.5 µM. With `CCCCCc1cc(/C=C/c2ccc(O)c(OC)c2)on1` [Compound 17, (E)-2-methoxy-4-(2-(3-pentylisoxazol-5-yl)vinyl)phenol] the IC50 was 5.85 ± 0.04 µM. With `CCCCCc1cc(/C=C/c2ccc(O)cc2)on1` [Compound 18, (E)-4-(2-(3-pentylisoxazol-5-yl)vinyl)phenol] the IC50 was > 200 µM. `CCCCCc1cc(/C=C/c2ccc(O)cc2)[nH]n1` [Compound 16, (E)-4-(2-(3-pentyl-1H-pyrazol-5-yl)vinyl)phenol] showed an IC50 of 17.5 ± 0.1 µM. `CCCCCCCC(=O)CCc1ccc(O)c(OC)c1` [Compound 3, 4,5-dihydro-6-shogaol] gave an IC50 of 4.4 ± 0.2 µM. In the case of `CCCCCc1cc(CCc2ccc(O)cc2)[nH]n1` [Compound 15, 4-(2-(3-pentyl-1H-pyrazol-5-yl)ethyl)phenol], the IC50 is reported as > 200 µM. With `CCCCCCCNC(=O)CCc1ccc(O)c(OC)c1` [Compound 22] the IC50 was > 100 µM. For `CCCCC[C@H](O)C[C@@H](O)CCc1ccc(O)c(OC)c1` [Compound 6, (3S,5S)-1-(4-hydroxy-3-methoxyphenyl)decane-3,5-diol], the IC50 was 76.2 ± 0.3 µM. For `CCCCCc1cc(CCc2ccc(O)c(OC)c2)[nH]n1` [Compound 14, 2-methoxy-4-(2-(3-pentyl-1H-pyrazol-5-yl)ethyl)phenol], the IC50 was 3.6 ± 0.2 µM. With `CCCCCCCC(CCc1ccc(O)c(OC)c1)=NO` [Compound 4, 1-(4-hydroxy-3-methoxyphenyl)decan-3-one oxime] the IC50 was 5.2 ± 0.3 µM.

Tested on: not listed separately
Assay: Peroxynitrite scavenging (pyrogallol red)
Settings: % inhibition at 500 µM; mean ± SEM, n = 3
Experimental: Peroxynitrite was synthesised by a continuous flow system using syringe pumps as published previously. Briefly, an acidic solution of hydrogen peroxide (0.6 M H2O2, 0.7 M HCl) was pumped to a junction alongside of sodium nitrite solution (0.6 M) at a flow rate of 1.5 mL/min. After passing 10 cm of tubing, it was mixed with a sodium hydroxide solution (1.5 M), also pumped at 1.5 mL/min. The resulting peroxynitrite solution was a bright yellow colour. The tubing around the reaction was submerged in ice. The concentration of the solution was determined by spectrophotometry and was adjusted to 30 mM with 0.1 M NaOH solution.
In a 96-well microplate 245 µL of pyrogallol red (100 µM final concentration, dissolved in 0.1 M glycine buffer) was mixed with 50 µL of sample (0.5 mM final concentration, dissolved in DMSO) and 5 µL ONOO^– solution (500 µM final concentration, freshly prepared). After mixing and keeping it at room temperature for 30 min the absorbance was measured at 550 nm using a FluoStar Optima plate reader (software version 2.20R2, BMG Labtech, Ortenberg, Germany).
In the case of `CCCCC[C@H](O)CC(=O)CCc1ccc(O)c(OC)c1` [Compound 1, (S)-5-hydroxy-1-(4-hydroxy-3-methoxyphenyl)decan-3-one], the “ONOO^– Scavenging (%)” value is reported as <5.0%. For `CCCCC/C=C/C(=O)CCc1ccc(O)c(OC)c1` [Compound 2, 6-shogaol], the “ONOO^– Scavenging (%)” value was <5.0%. In the case of `CCCCC[C@H](O)C[C@H](O)CCc1ccc(O)c(OC)c1` [Compound 5, (3R,5S)-1-(4-hydroxy-3-methoxyphenyl)decane-3,5-diol], the “ONOO^– Scavenging (%)” value is reported as <5.0%. In the case of `CCCCCc1cc(/C=C/c2ccc(O)c(OC)c2)on1` [Compound 17, (E)-2-methoxy-4-(2-(3-pentylisoxazol-5-yl)vinyl)phenol], the “ONOO^– Scavenging (%)” value is reported as 38.40 ± 3.05%. In the case of `CCCCCc1cc(/C=C/c2ccc(O)cc2)on1` [Compound 18, (E)-4-(2-(3-pentylisoxazol-5-yl)vinyl)phenol], the “ONOO^– Scavenging (%)” value is reported as 5.64 ± 1.31%. For `CCCCCc1cc(/C=C/c2ccc(O)cc2)[nH]n1` [Compound 16, (E)-4-(2-(3-pentyl-1H-pyrazol-5-yl)vinyl)phenol], the “ONOO^– Scavenging (%)” value was <5.0%. With `CCCCCCCC(=O)CCc1ccc(O)c(OC)c1` [Compound 3, 4,5-dihydro-6-shogaol] the “ONOO^– Scavenging (%)” value was <5.0%. For `CCCCCc1cc(CCc2ccc(O)cc2)[nH]n1` [Compound 15, 4-(2-(3-pentyl-1H-pyrazol-5-yl)ethyl)phenol], the “ONOO^– Scavenging (%)” value was <5.0%. In the case of `CCCCCCCNC(=O)CCc1ccc(O)c(OC)c1` [Compound 22], the “ONOO^– Scavenging (%)” value is reported as <5.0%. For `CCCCC[C@H](O)C[C@@H](O)CCc1ccc(O)c(OC)c1` [Compound 6, (3S,5S)-1-(4-hydroxy-3-methoxyphenyl)decane-3,5-diol], the “ONOO^– Scavenging (%)” value was <5.0%. In the case of `CCCCCc1cc(CCc2ccc(O)c(OC)c2)[nH]n1` [Compound 14, 2-methoxy-4-(2-(3-pentyl-1H-pyrazol-5-yl)ethyl)phenol], the “ONOO^– Scavenging (%)” value is reported as <5.0%. In the case of `CCCCCCCC(CCc1ccc(O)c(OC)c1)=NO` [Compound 4, 1-(4-hydroxy-3-methoxyphenyl)decan-3-one oxime], the “ONOO^– Scavenging (%)” value is reported as <5.0%.

Tested on: not listed separately
Assay: Kinetic aqueous solubility in PBS pH 7.4
Type: physicochemical
Settings: PBS (pH 7.4), 37 °C, pH 7.4, aqueous buffer, kinetic from dmso stock, after 2 h at 37 °C in PBS, 500 μM target concentration, mean ± SEM, n = 3
Experimental: Preparative purifications over RP-HPLC were performed on a Kinetex XB C18 (5 μm, 250 × 21.2 mm) column on an Armen Spot Prep II integrated HPLC purification system (Gilson, Middleton, WI, USA) with dual-wavelength detection, with an adequately chosen combination of acetonitrile–water, and a flow rate of 15 mL/min. The purity of the compounds obtained was determined by RP-HPLC analyses on a system of two Jasco PU 2080 pumps, a Jasco AS-2055 Plus intelligent sampler connected to a JASCO LC-Net II/ADC equipped with a Jasco MD-2010 Plus PDA detector (Jasco International Co. Ltd., Hachioji, Tokyo, Japan) utilizing a Kinetex C-18 (5 μm, 250 × 4.6 mm) column (Phenomenex Inc., Torrance, CA, USA) and applying a gradient of 30%–100% aqueous AcN in 30 min followed by 100% ACN for 10 min with a flow rate of 1 mL/min. Analysis of samples from the PAMPA and kinetic solubility assays was performed the same way, by using 3-point calibrations and integrating each compound at its UV absorption maximum.
In a 96-well polypropylene plate (Greiner Bio-One, Kremsmünster, Austria), 15 μL stock solutions were added to 285 μL PBS (pH 7.4) to make starting donor solution with 500 μM as target concentration. For each sample, 3 replicates were measured. The samples were covered and shaken at 37 °C, 300 rpm for 2 h (Heidolph Titramax 1000, Heidolph Instruments GmbH & Co. KG, Schwabach, Germany). After that, each sample was transferred into a filter plate (MSSBLPC, Multiscreen Filter plate, Merck kGaA) and filtered (Vaccum Manifold, Merck kGaA, Darmstadt, Germany). The filtrates were transferred into HPLC vials, and acetonitrile (AcN) was added to aliquot to avoid precipitation. The final solvent ratio was AcN:PBS (70:30). Filtrate concentration was determined by HPLC-UV (see Section 2.1) using 3-points calibration.
For `CCCCC/C=C/C(=O)CCc1ccc(O)c(OC)c1` [Compound 2, 6-shogaol], the solubility kinetic at 2 h was > 100 µM. For `CCCCCc1cc(/C=C/c2ccc(O)c(OC)c2)on1` [Compound 17, (E)-2-methoxy-4-(2-(3-pentylisoxazol-5-yl)vinyl)phenol], the solubility kinetic at 2 h was 10.9 ± 2 µM. `CCCCCc1cc(/C=C/c2ccc(O)cc2)[nH]n1` [Compound 16, (E)-4-(2-(3-pentyl-1H-pyrazol-5-yl)vinyl)phenol] showed a solubility kinetic at 2 h of 89.4 ± 3.1 µM. Molecule `CCCCCCCC(=O)CCc1ccc(O)c(OC)c1` [Compound 3, 4,5-dihydro-6-shogaol] has a solubility kinetic at 2 h of 45.2 ± 2.7 µM. In the case of `CCCCCc1cc(CCc2ccc(O)cc2)[nH]n1` [Compound 15, 4-(2-(3-pentyl-1H-pyrazol-5-yl)ethyl)phenol], the solubility kinetic at 2 h is reported as 203 ± 5.5 µM. `CCCCCc1cc(CCc2ccc(O)c(OC)c2)[nH]n1` [Compound 14, 2-methoxy-4-(2-(3-pentyl-1H-pyrazol-5-yl)ethyl)phenol] showed a solubility kinetic at 2 h of 277 ± 5.5 µM. For `CCCCCCCC(CCc1ccc(O)c(OC)c1)=NO` [Compound 4, 1-(4-hydroxy-3-methoxyphenyl)decan-3-one oxime], the solubility kinetic at 2 h was 75.1 ± 7.3 µM.

Same assay, conditions: after 2 h at 37 °C in PBS, 500 μM target concentration, mean ± SEM, n = 3
In the case of `CCCCCc1cc(/C=C/c2ccc(O)cc2)on1` [Compound 18, (E)-4-(2-(3-pentylisoxazol-5-yl)vinyl)phenol], the “Kinetic Solubility” value is reported as “< LOD”.
